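48-hour exposure; five concentrations; linearly interpolated endpoints. TGI denotes the concentration required for complete inhibition of growth.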
What was measured:
Assay in all cases: NCI-60 cell line screen, 48 h
[1] = tested on: DMS 114 small cell lung
[2] = tested on: DMS 273 small cell lung
[3] = tested on: KM20L2 colon
[4] = tested on: LXFL 529 NSCLC
[5] = tested on: M19-MEL melanoma
[6] = tested on: RXF-631 renal
[7] = tested on: HOP-18 NSCLC
[8] = tested on: SNB-78 CNS
[9] = tested on: XF 498 CNS

Structure (SMILES) | TGI [1] [µM] | TGI [2] [µM] | TGI [3] [µM] | TGI [4] [µM] | TGI [5] [µM] | TGI [6] [µM] | TGI [7] [µM] | TGI [8] [µM] | TGI [9] [µM]
COc1c(C)cc2c(c1O)C1NC(C2)[C@H](O)N2C3COC(=O)[C@@]4(CS[C@@H](c5c(OC(C)=O)c(C)c6c(c53)OCO6)C12)NCCC1=C4NC2C=CC=CC12 (stereo partly drawn) | < 0.01 | < 0.01 | < 0.01 | 0.0117 | < 0.01 | 0.167 | – | – | –
Brc1cc2c(cc1C1SCCS1)OCO2 | > 100 | > 100 | > 100 | > 100 | – | > 100 | > 100 | > 100 | –
CC(C)N1CN(C(C(=O)N[C@@H]2C(=O)N3C2SC(C)(C)C3C(=O)O)c2ccc(O)cc2)CSC1=S (stereo partly drawn) | > 100 | > 100 | > 100 | > 100 | > 100 | – | > 100 | > 100 | > 100
COc1cc(/C=C\c2cccnc2)cc(OC)c1OC | > 100 | > 100 | > 100 | > 100 | > 100 | – | > 100 | > 100 | > 100
CCOP(=O)(OCC)C(C(=O)OC)C(=O)C(=O)Nc1c(C)cc(Br)cc1C (stereo not drawn) | > 100 | > 100 | > 100 | > 100 | > 100 | > 100 | > 100 | > 100 | > 100
COc1ccc(C=C(c2ccc(OCc3ccccc3)cc2)c2ccc(OCc3ccccc3)cc2)cc1 | > 100 | > 100 | > 100 | > 100 | > 100 | > 100 | > 100 | > 100 | > 100
O=C1C2CN(Cc3ccccc3)CC1CN(CC1CC1)C2 | > 100 | > 100 | > 100 | > 100 | > 100 | – | > 100 | – | > 100
CCCCCCCC(=O)OCC1OC(OC)C(NC(=O)N(CCCl)N=O)C(O)C1O (stereo not drawn) | 29.6 | 15.9 | > 59.2 | 42 | 49.2 | 19 | 72.3 | 79.6 | 30.6

Reference: PubChem BioAssay (NCI)
